Data on one molecule can be found in ChEMBL document CHEMBL1671662, “In vitro activities of telavancin and six comparator agents against anaerobic bacterial isolates” (2009).

Format in all cases: functional
Experiment [1] deals with Streptococcus constellatus. Nature of the experiment: Antibacterial activity against Streptococcus constellatus by CLSI M11-A6 agar dilution method in presence of beta-lactamase inhibitor Sulbactam.
Experiment [2] has as its system Prevotella bivia. Nature of the experiment: Antibacterial activity against Prevotella bivia by CLSI M11-A6 agar dilution method in presence of beta-lactamase inhibitor Sulbactam.
Experiment [3] concerns Propionibacterium propionicum. Nature of the experiment: Antibacterial activity against Propionibacterium propionicus by CLSI M11-A6 agar dilution method in presence of beta-lactamase inhibitor Sulbactam. Particulars: Arachnia propionica.
Experiment [4] has as its system Fusobacterium varium. The experiment can be described thus: Antibacterial activity against Fusobacterium varium by CLSI M11-A6 agar dilution method in presence of beta-lactamase inhibitor Sulbactam.
Experiment [5] has as its system Phocaeicola vulgatus. Nature of the experiment: Antibacterial activity against Bacteroides vulgatus by CLSI M11-A6 agar dilution method in presence of beta-lactamase inhibitor Sulbactam.

Turning to `CC1(C)S[C@@H]2[C@H](NC(=O)[C@H](N)c3ccccc3)C(=O)N2[C@H]1C(=O)O` [AMPICILLIN], the MIC50 in experiment [1] was 0.5 µg/mL; in experiment [2] it was no more than 0.12 µg/mL; in experiment [3], 0.25 µg/mL; in experiment [4] it was 2 µg/mL; in experiment [5], 8 µg/mL. For the same molecule, the MIC90 in experiment [1] was 0.5 µg/mL; in experiment [2], 2 µg/mL; in experiment [3], 1 µg/mL; in experiment [4], 16 µg/mL; in experiment [5], 16 µg/mL.
